pIC50: −log10 of the molar value. Counter-ions that a name gives are not always drawn. Like-named read-outs stand apart in the source and are kept apart here.
Key:
IL-2 production = experiment: Inhibition of IL-2 production in PHA-activated Jurkat cells (ELISA); assay type: cell-based, human; conditions: Homo sapiens, Jurkat cells, PHA 2.5 μg/mL, 20 hours, IL-2 ELISA, read-out: IC50 (inhibition of IL-2 production)
Protocol: Jurkat cells were placed in a 96 well plate (0.5 million cells per well in 1% FBS medium) then a test compound of this invention was added at different concentrations. After 10 minutes, the cells were activated with PHA (final concentration 2.5 μg/mL) and incubated for 20 hours at 37° C. under CO2. The final volume was 200 μL. Following incubation, the cells were centrifuged and the supernatants collected and stored at −70° C. prior to assaying for IL-2 production. A commercial ELISA kit (IL-2 Eli-pair, Diaclone Research, Besancon, France) was used to detect production of IL-2, from which dose response curves were obtained. The IC50 value was calculated as the concentration at which 50% of maximum IL-2 production after stimulation was inhibited versus a non-stimulation control.

[1] = test system: degranulation in RBL cells; experiment: Inhibition of degranulation in RBL cells; assay type: cell-based; conditions: Rattus norvegicus, anti-DNP IgE, read-out: IC50 (concentration which inhibits 50% of degranulation in RBL cells)
Protocol: The day before the assay was performed, RBL cells, that had been grown to confluence in a 96 well plate, were incubated at 37° C. for at least 2 hours. The medium was replaced in each well with 100 μL of fresh medium containing […] of anti-DNP IgE.
On the following day, the cells were washed once with PRS (2.6 mM glucose and 0.1% BSA) and 160 μL of PRS was added to each well. A test compound was added to a well in a 20 μL solution at 10× of the desired concentration and incubated for 20 to 40 minutes at 37° C. 20 μL of 10× mouse anti-IgE ([…]) was added. Maximum degranulation occurred between 15 to 40 minutes after addition of anti-IgE.

[2] = test system: chemotactic response of porcine T cells to MIP-1α; experiment: T cell chemotaxis (cell migration) assay, porcine T cells; assay type: cell-based, pig; conditions: Sus scrofa, 10 ng/ml MIP-1α, 2 hr migration, averages of triplicates, read-out: IC50, inhibition of chemotactic response of porcine T cells
Protocol: (§1) Twenty ml aliquots of heparinized whole blood (2 pig, 1 human) were subjected to density gradient centrifugation on Ficoll Hypaque. The buffy coat layers representing peripheral blood mononuclear cells (PBMCs) containing lymphocytes and monocytes were washed once, resuspended in 12 ml of incomplete RPMI 1640 and then placed in gelatin-coated T75 culture flasks for 1 hr at 37° C. The non-adherent cells, representing peripheral blood lymphocytes (PBLs) depleted of monocytes, were resuspended in complete RPMI media and placed in loosely packed activated nylon wool columns that had been equilibrated with warm media. After 1 hr at 37° C., the non-adherent T cell populations were eluted by washing of the columns with additional media. The T cell preparations were centrifuged, resuspended in 5 ml of incomplete RPMI, and counted using a hemocytometer.
(§2) Aliquots of each T cell preparation were labeled with Calcien AM (TefLabs) and suspended at a concentration of 2.4×10^6/ml in HEPES-buffered Hank's Balanced Salt Solution containing 1.83 mM CaCl2 and 0.8 mM MgCl2, pH 7.4 (HHBSS). […] The chemotaxis units were then placed in a CytoFlour 4000 (PerSeptive BioSystems) and the fluorescence of each well measured (excitation and emission wavelengths of 450 and 530 nm, respectively). […]

[3] = test system: ICRAC in human Jurkat T cells; experiment: Whole-cell patch clamp, inhibition of ICRAC current in Jurkat T cells; assay type: cell-based
Protocol: Patch clamp experiments were performed in the tight-seal whole-cell configuration at 21-25° C. High resolution current recordings were acquired by a computer-based patch clamp amplifier system (EPC-9, HEKA, Lambrecht, Germany). Patch pipettes had resistances between 2-4 MΩ after filling with the standard intracellular solution. Immediately following establishment of the whole-cell configuration, voltage ramps of 50-200 ms duration spanning the voltage range of −100 to +100 mV were delivered at a rate of 0.5 Hz over a period of 300-400 seconds. […] Capacitive currents and series resistance were determined and corrected before each voltage ramp using the automatic capacitance compensation of the EPC-9. The low resolution temporal development of membrane currents was assessed by extracting the current amplitude at −80 mV or +80 mV from individual ramp current records.
In general, a whole cell patch clamp method was used to examine the effects of a compound of the invention on a channel that mediates Icrac. […] Then a compound to be tested was perfused (or puffed) to cells in the external solution and the effect of the compound on Icrac was measured. […]
Patch-clamp experiments were performed in the tight-seal whole-cell configuration at 21-25° C. […] Capacitive currents and series resistance were determined and corrected before each voltage ramp using the automatic capacitance compensation of the EPC-9. […]

[4] = test system: chemotactic response of human T cells to MIP-1α; experiment: T cell chemotaxis (cell migration) assay, human T cells; assay type: cell-based; conditions: 100 ng/ml MIP-1α, FIG. 1
Protocol: as §1, §2

SMILES | pIC50 (IL-2 production; Jurkat, 20 h) | pIC50 [1] | pIC50 (IL-2 production) | pIC50 ([1]; RBL) | pIC50 [2] | Inhibition of ICRAC in human Jurkat T cells [3] | Inhibition of chemotactic response of human T cells [4]
COC(=O)c1ccc(C)c(-c2ccc(NC(=O)c3c(F)cncc3F)cc2)c1 [Compound 4, 4′-[(3,5-Difluoro-pyridine-4-cabonyl)-amino]-6-methyl-biphenyl-3-carboxylic acid methyl ester] | 8.70 | 5.84 | – | – | – | – | –
COCCOC(=O)c1ccc(Cl)c(-c2ccc(NC(=O)c3c(F)cccc3F)cc2)c1 [Compound 2, 6-Chloro-4′-(2,6-difluoro-benzoylamino)-biphenyl-3-(carboxylic acid 2-methoxyethyl ester)] | 8.05 | 5.31 | – | – | – | – | –
COc1ncc(Cl)cc1-c1ccc(NC(=O)c2c(F)cccc2F)cc1 [Compound 8, N-[4-(5-Chloro-2-methoxy-pyridin-3-yl)-phenyl]-2,6-difluoro-benzamide, hydrochloride] | – | – | 7.89 | 6.28 | – | – | –
COC(=O)c1ccc(C)c(-c2ccc(NC(=O)c3c(F)cccc3F)cc2)c1 [Compound 1, 4′-(2,6-Difluoro-benzoylamino)-6-methyl-biphenyl-3-carboxylic acid methyl ester] | 8.40 to 8.70 | 5.60 | – | – | ~8.30 | strong inhibitor | inhibitory
COC(=O)c1ccc(C)c(-c2ccc(NC(=O)c3ccncc3F)cc2)c1 [Compound 12, 4′-[(3-Fluoro-pyridine-4-carbonyl)-amino]-6-methyl-biphenyl-3-carboxylic acid methyl ester] | 8.30 | 6.32 | – | – | – | – | –
Cc1ccc(-c2ncco2)cc1-c1ccc(NC(=O)c2c(F)cccc2F)cc1 [Compound 3, 2,6-Difluoro-N-(2′-methyl-5′-oxazol-2-yl-biphenyl-4-yl)-bezamide] | 8.80 | 5.35 | – | – | – | – | –
